According to patent US9181223B2, “2-aminopyrimidin-6-ones and analogs exhibiting anti-cancer and anti-proliferative activities” (Deciphera Pharmaceuticals, LLC, priority 2013, dated 2015):
Where two headings read alike, the source gives them in different places.

Columns and labels:
[1] = target: T1, unphosphorylated c-KIT kinase (uKIT, Seq. ID no. 2) (Homo sapiens, UniProt P10721); assay: uKit kinase assay (ADP production coupled to pyruvate kinase/lactate dehydrogenase); format: biochemical; settings: read-out: uKIT
T1 construct: uKit with N-terminal GST fusion used for screening
Protocol: In this assay, the oxidation of NADH (thus the decrease at A340 nm) was continuously monitored spectrophometrically. […] The inhibition reaction was started by mixing serial diluted test compound with the above reaction mixture. The absorption at 340 nm was monitored continuously for 4 hours at 30° C. on Synergy 2 plate reader (BioTech).

[2] = target: T2, unphosphorylated PDGFRβ kinase (uPDGFRβ, Seq. ID No. 3) (Homo sapiens, UniProt P09619); assay: uPDGFRβ kinase assay (ADP production coupled to pyruvate kinase/lactate dehydrogenase); format: biochemical; settings: enzymatic assay, ATP 500 μM
T2 construct: purchased DeCode
Protocol: Unphosphorylated […]β) Kinase (Seq. ID No. 3) Assay Activity of unphosphorylated PDGFRβ kinase ([…] No. 3) was determined by following the production of ADP from the kinase reaction with ATP and poly E4Y as substrates through coupling with the pyruvate kinase/lactate dehydrogenase system (e.g., Schindler et al. Science (2000) 289: 1938-1942). In this assay, the oxidation of NADH (thus the decrease at A340 nm) was continuously monitored spectrophometrically. The reaction mixture (100 μL) contained PDGFRβ (DeCode, 15.7 nM), polyE4Y (2.5 mg/mL), MgCl2 (10 mM), pyruvate kinase (4 units), lactate dehydrogenase (0.7 units), phosphoenol pyruvate (1 mM) and NADH (0.28 mM) and ATP (500 μM) in a 90 mM Tris buffer containing 0.2% octyl-glucoside and 1% DMSO, at pH 7.5. The inhibition reaction was started by mixing serial diluted test compound with the above reaction mixture. The absorption at 340 nm was monitored continuously for 4 h at 30° C. on a Polarstar Optima or Synergy 2 plate reader. The reaction rate was calculated using the 1.5 to 2.5 h time frame. Percent inhibition was obtained by comparison of reaction rate with that of a control (i.e. with no test compound). IC50 values were calculated from a series of percent inhibition values determined at a range of inhibitor concentrations using software routines as implemented in the GraphPad Prism software package.

[3] = system: osteoclast precursors; assay: Osteoclast tartrate-resistant acid phosphatase assay; format: cell-based; settings: tartrate-resistant acid phosphatase activity, RANKL and M-CSF, 7-14 days
Protocol: Osteoclast Tartrate-Resistant Acid Phosphatase Assay
A serial dilution of test compound was dispensed into a 384-well black clear bottom plate (Nalge Nunc International, Rochester, N.Y.). Compound was diluted by the addition of DMEM media supplemented with 10% characterized fetal bovine serum (Invitrogen, Carlsbad, Calif.). Diluted compound was transferred to a 384-well black clear bottom plate. Two-thousand five hundred osteoclast precursors (Lonza, Walkersville, Md.) were added per well in growth media containing Receptor Activator of Nuclear Factor Kappa-beta ligand (RANKL) and M-CSF (R&D Systems, Minneapolis, Minn.). Plates were incubated for 7-14 days at 37 degrees Celsius, 5% CO2, and 95% humidity to allow differentiation of osteoclast precursors. At the end of the incubation period, 10 μL of supernatant from each well was transferred to a clear 384-well plate. Tartrate-resistant acid phosphatase activity in the supernatant samples was determined using an acid phosphatase assay kit (Sigma, St. Louis, Mo.). Absorbance was measured at 550 nm using a plate reader. Data was analyzed using Prism software (Graphpad, San Diego, Calif.) to calculate IC50 values.

T1 sequence (P10721 with tags, fused parts or gaps): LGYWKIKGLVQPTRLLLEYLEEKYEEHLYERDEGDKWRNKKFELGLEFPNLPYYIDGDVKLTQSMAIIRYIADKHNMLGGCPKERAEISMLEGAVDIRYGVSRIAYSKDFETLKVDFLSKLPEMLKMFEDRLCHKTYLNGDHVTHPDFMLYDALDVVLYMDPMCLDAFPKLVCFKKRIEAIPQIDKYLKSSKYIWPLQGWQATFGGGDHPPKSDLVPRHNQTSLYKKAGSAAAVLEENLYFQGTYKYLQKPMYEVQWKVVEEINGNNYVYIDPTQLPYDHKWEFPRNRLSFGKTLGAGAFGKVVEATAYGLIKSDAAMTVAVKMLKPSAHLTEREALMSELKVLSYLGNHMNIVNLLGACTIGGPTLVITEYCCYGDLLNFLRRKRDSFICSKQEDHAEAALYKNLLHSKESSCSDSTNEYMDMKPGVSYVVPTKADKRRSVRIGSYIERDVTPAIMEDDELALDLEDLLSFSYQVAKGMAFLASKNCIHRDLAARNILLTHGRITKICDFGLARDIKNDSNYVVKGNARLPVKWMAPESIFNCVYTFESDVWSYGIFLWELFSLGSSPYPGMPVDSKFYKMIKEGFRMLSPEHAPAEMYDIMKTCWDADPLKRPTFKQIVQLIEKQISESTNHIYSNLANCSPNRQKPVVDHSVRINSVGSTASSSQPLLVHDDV
T2 sequence (P09619 557-1106): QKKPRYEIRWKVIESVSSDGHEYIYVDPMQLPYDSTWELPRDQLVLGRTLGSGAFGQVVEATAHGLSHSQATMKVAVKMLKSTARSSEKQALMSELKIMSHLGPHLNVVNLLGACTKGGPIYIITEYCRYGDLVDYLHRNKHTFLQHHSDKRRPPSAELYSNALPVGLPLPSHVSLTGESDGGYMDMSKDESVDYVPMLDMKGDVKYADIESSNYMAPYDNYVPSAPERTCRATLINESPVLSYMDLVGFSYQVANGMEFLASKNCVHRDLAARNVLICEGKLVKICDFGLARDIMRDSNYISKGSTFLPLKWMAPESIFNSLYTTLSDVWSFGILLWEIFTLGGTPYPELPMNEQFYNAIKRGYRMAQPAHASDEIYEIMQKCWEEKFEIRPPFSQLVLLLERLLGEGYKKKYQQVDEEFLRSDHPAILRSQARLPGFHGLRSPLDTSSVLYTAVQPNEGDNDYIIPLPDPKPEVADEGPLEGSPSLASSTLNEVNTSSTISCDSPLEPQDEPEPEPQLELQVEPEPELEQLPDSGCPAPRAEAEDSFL

Structure (SMILES)	IC50 ([1]; enzymatic assay, ATP 2000 μM)	IC50 [2]	IC50 [3]	IC50 [1]
CCNc1ncc(-c2ccc(Oc3ccnc(-c4cnn(C)c4)c3)c(C)n2)c(=O)[nH]1 [Example 1, 2-(ethylamino)-5-(6-methyl-5-((2-(1-methyl-1H-pyrazol-4-yl)pyridin-4-yl)oxy)pyridin-2-yl)pyrimidin-4(3H)-one]	> 1000 nM	> 1000 nM	10 to 100 nM	
Cc1nc(-c2cnc(N(C)C)[nH]c2=O)ccc1Oc1ccnc(-c2cnn(C)c2)c1 [Example 2, 2-(dimethylamino)-5-(6-methyl-5-((2-(1-methyl-1H-pyrazol-4-yl)pyridin-4-yl)oxy)pyridin-2-yl)pyrimidin-4(3H)-one]	> 1000 nM	> 1000 nM	10 to 100 nM	
Cc1nc(-c2cnc(NC(C)C)[nH]c2=O)ccc1Oc1ccnc(-c2cnn(C)c2)c1 [Example 3, 2-(isopropylamino)-5-(6-methyl-5-((2-(1-methyl-1H-pyrazol-4-yl)pyridin-4-yl)oxy)pyridin-2-yl)pyrimidin-4(3H)-one]	100 to 1000 nM	> 1000 nM	10 to 100 nM	
CCNc1ncc(-c2ccc(Oc3ccnc(-c4ccc(C)nc4)c3)c(C)n2)c(=O)[nH]1 [Example 4, 2-(ethylamino)-5-(6-methyl-5-((6′-methyl-[2,3′-bipyridin]-4-yl)oxy)pyridin-2-yl)pyrimidin-4(3H)-one]	> 1000 nM	> 1000 nM	100 to 1000 nM	
CCNc1ncc(-c2ccc(Oc3ccnc(-n4cnc(C)c4)c3)c(C)n2)c(=O)[nH]1 [Example 5, 2-(ethylamino)-5-(6-methyl-5-((2-(4-methyl-1H-imidazol-1-yl)pyridin-4-yl)oxy)pyridin-2-yl)pyrimidin-4(3H)-one]	> 1000 nM	> 1000 nM	100 to 1000 nM	
CNc1ncc(-c2ccc(Oc3ccnc(-c4cnn(C)c4)c3)c(C)n2)c(=O)[nH]1 [Example 7, 5-(6-methyl-5-((2-(1-methyl-1H-pyrazol-4-yl)pyridin-4-yl)oxy)pyridin-2-yl)-2-(methylamino)pyrimidin-4(3H)-one]	100 to 1000 nM	> 1000 nM	100 to 1000 nM	
CCNc1ncc(-c2ccc(Oc3ccnc(-c4cnn(C)c4)c3)cn2)c(=O)[nH]1 [Example 8, 2-(ethylamino)-5-(5-((2-(1-methyl-1H-pyrazol-4-yl)pyridin-4-yl)oxy)pyridin-2-yl)pyrimidin-4(3H)-one]	100 to 1000 nM	> 1000 nM	100 to 1000 nM	
Cc1nc(-c2cnc(N3CCCC3)[nH]c2=O)ccc1Oc1ccnc(-c2cnn(C)c2)c1 [Example 9, 5-(6-methyl-5-((2-(1-methyl-1H-pyrazol-4-yl)pyridin-4-yl)oxy)pyridin-2-yl)-2-(pyrrolidin-1-yl)pyrimidin-4(3H)-one]		> 1000 nM	10 to 100 nM	> 1000 nM
CNC(=O)c1cc(Oc2ccc(-c3cnc(NC(C)C)[nH]c3=O)nc2)ccn1 [Example 11, 4-((6-(2-(isopropylamino)-6-oxo-1,6-dihydropyrimidin-5-yl)pyridin-3-yl)oxy)-N-methylpicolinamide]	> 1000 nM	> 1000 nM	10 to 100 nM	
Cc1nc(-c2cnc(N3CCOCC3)[nH]c2=O)ccc1Oc1ccnc(-c2cnn(C)c2)c1 [Example 12, 5-(6-methyl-5-((2-(1-methyl-1H-pyrazol-4-yl)pyridin-4-yl)oxy)pyridin-2-yl)-2-morpholinopyrimidin-4(3H)-one]	> 1000 nM	> 1000 nM	10 to 100 nM	
Cc1nc(-c2cnc(N3CCCCC3)[nH]c2=O)ccc1Oc1ccnc(-c2cnn(C)c2)c1 [Example 13, 5-(6-methyl-5-((2-(1-methyl-1H-pyrazol-4-yl)pyridin-4-yl)oxy)pyridin-2-yl)-2-(piperidin-1-yl)pyrimidin-4(3H)-one]	> 1000 nM	> 1000 nM	10 to 100 nM	
Cc1nc(-c2cnc(NC3CC3)[nH]c2=O)ccc1Oc1ccnc(-c2cnn(C)c2)c1 [Example 14, 2-(cyclopropylamino)-5-(6-methyl-5-((2-(1-methyl-1H-pyrazol-4-yl)pyridin-4-yl)oxy)pyridin-2-yl)pyrimidin-4(3H)-one]	> 1000 nM	> 1000 nM	10 to 100 nM	
Cc1nc(-c2cnc(NC3CCCC3)[nH]c2=O)ccc1Oc1ccnc(-c2cnn(C)c2)c1 [Example 15, 2-(cyclopentylamino)-5-(6-methyl-5-((2-(1-methyl-1H-pyrazol-4-yl)pyridin-4-yl)oxy)pyridin-2-yl)pyrimidin-4(3H)-one]	100 to 1000 nM	100 to 1000 nM	< 10 nM	
Cc1nc(-c2cnc(NC3CC3)n(C)c2=O)ccc1Oc1ccnc(-c2cnn(C)c2)c1 [Example 17, 2-(cyclopropylamino)-3-methyl-5-(6-methyl-5-((2-(1-methyl-1H-pyrazol-4-yl)pyridin-4-yl)oxy)pyridin-2-yl)pyrimidin-4(3H)-one]	> 1000 nM	> 1000 nM	< 10 nM	
CC(=O)Nc1cc(Oc2ccc(-c3cnc(NC(C)C)[nH]c3=O)nc2C)ccn1 [Example 19, N-(4-((6-(2-(isopropylamino)-6-oxo-1,6-dihydropyrimidin-5-yl)-2-methylpyridin-3-yl)oxy)pyridin-2-yl)acetamide]	100 to 1000 nM	100 to 1000 nM	10 to 100 nM	
Cc1cc(-c2cnc(N3CCCC3)[nH]c2=O)ncc1Oc1ccnc(-c2cnn(C)c2)c1 [Example 20, 5-(4-methyl-5-((2-(1-methyl-1H-pyrazol-4-yl)pyridin-4-yl)oxy)pyridin-2-yl)-2-(pyrrolidin-1-yl)pyrimidin-4(3H)-one]	100 to 1000 nM	100 to 1000 nM	< 10 nM	
CCn1cc(-c2cc(Oc3ccc(-c4cnc(NC(C)C)[nH]c4=O)nc3C)ccn2)cn1 [Example 21, 5-(5-((2-(1-ethyl-1H-pyrazol-4-yl)pyridin-4-yl)oxy)-6-methylpyridin-2-yl)-2-(isopropylamino)pyrimidin-4(3H)-one]	> 1000 nM	> 1000 nM	10 to 100 nM	
Cc1nc(-c2cnc(NC3CCOCC3)[nH]c2=O)ccc1Oc1ccnc(-c2cnn(C)c2)c1 [Example 27, 5-(6-methyl-5-((2-(1-methyl-1H-pyrazol-4-yl)pyridin-4-yl)oxy)pyridin-2-yl)-2-((tetrahydro-2H-pyran-4-yl)amino)pyrimidin-4(3H)-one]	> 1000 nM	> 1000 nM	10 to 100 nM	
